Laboratory results from ChEMBL document CHEMBL5725962, “Pyrazolo[1,5-A]PYRAZIN-4-YL derivatives” (2018).
pIC50: −log10 of the molar value.

How the values were obtained:
[1] = biological target: T1, Tyrosine-protein kinase JAK3 (Homo sapiens, UniProt P52333); test: (§1) JAK Caliper Enzyme Assay at 1 mM ATP: Compounds were added to a 384-well plate. Reaction mixtures contained 10 mM HEPES, pH 7.4, 10 mM MgCl2, 0.01% BSA, 0.0005% Tween 20, 1 mM ATP and 1 μM peptide substrate. The JAK1 and TYK2 assays contained 1 μM of the IRStide peptide (5FAM-[…]) and the JAK2 and JAK3 assays contained 1 μM of the JAKtide peptide (FITC-[…]). The assays were initiated by the addition of 20 nM JAK1, 1 nM JAK2, 1 nM JAK or 1 nM TYK2 enzyme and were incubated at room temperature for three hours for JAK1, 60 minutes for JAK2, 75 minutes for JAK3 or 135 minutes for TYK2. Enzyme concentrations and incubation times were optimized for each new enzyme preps and were modified slightly over time to ensure 20% to 30% phosphorylation. The assays were stopped with 15 μL of 180 mM HEPES, pH 7.4, 20 mM EDTA, and 0.2% Coating Reagent 3. The assay plates were placed on a Caliper Life Science LC3000 instrument, and each well was sampled using appropriate separation conditions to measure the unphosphorylated and phosphorylated peptide.
T1 sequence (P52333 whole entry): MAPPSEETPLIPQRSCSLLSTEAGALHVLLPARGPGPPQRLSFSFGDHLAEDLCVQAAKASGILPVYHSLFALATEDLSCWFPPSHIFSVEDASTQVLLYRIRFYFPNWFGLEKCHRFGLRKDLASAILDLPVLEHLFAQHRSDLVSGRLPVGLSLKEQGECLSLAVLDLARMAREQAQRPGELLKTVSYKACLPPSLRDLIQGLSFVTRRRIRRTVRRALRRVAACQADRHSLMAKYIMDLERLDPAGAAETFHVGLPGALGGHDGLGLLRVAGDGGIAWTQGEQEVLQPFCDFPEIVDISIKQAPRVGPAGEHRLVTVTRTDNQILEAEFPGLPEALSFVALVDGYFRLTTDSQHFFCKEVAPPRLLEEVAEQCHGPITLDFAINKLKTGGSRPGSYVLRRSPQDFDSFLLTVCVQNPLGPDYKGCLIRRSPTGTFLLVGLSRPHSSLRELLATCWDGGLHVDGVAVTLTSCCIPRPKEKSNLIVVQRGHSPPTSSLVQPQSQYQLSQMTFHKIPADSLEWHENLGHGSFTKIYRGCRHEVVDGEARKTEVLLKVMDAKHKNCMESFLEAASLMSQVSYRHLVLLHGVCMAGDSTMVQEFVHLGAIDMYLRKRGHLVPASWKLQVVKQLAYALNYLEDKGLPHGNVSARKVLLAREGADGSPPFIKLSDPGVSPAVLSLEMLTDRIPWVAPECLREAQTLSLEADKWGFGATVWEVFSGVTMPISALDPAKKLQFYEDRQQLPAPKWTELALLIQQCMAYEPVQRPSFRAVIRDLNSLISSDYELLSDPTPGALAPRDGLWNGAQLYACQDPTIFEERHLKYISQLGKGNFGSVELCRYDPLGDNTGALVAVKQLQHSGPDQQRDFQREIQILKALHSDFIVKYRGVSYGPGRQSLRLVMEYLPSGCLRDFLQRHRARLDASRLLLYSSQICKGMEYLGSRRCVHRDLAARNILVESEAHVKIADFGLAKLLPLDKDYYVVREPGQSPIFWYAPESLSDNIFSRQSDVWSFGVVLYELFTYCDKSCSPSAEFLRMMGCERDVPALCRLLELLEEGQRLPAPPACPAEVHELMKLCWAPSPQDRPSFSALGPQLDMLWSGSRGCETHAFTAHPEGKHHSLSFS

[2] = biological target: Tyrosine-protein kinase JAK1 (Homo sapiens, UniProt P23458); test: as §1
[3] = biological target: Non-receptor tyrosine-protein kinase TYK2 (Homo sapiens, UniProt P29597); test: as §1
[4] = biological target: Tyrosine-protein kinase JAK2 (Homo sapiens, UniProt O60674); test: Reaction mixtures contained 10 mM HEPES, pH 7.4, 10 mM MgCl2, 0.01% BSA, 0.0005% Tween 20, 1 mM ATP and 1 μM peptide substrate. […] Enzyme concentrations and incubation times were optimized for each new enzyme preps and were modified slightly over time to ensure 20% to 30% phosphorylation. The assays were stopped with 15 μL of 180 mM HEPES, pH 7.4, 20 mM EDTA, and 0.2% Coating Reagent 3. The assay plates were placed on a Caliper Life Science LC3000 instrument, and each well was sampled using appropriate separation conditions to measure the unphosphorylated and phosphorylated peptide.
Sequence of Tyrosine-protein kinase JAK2 (O60674 whole entry): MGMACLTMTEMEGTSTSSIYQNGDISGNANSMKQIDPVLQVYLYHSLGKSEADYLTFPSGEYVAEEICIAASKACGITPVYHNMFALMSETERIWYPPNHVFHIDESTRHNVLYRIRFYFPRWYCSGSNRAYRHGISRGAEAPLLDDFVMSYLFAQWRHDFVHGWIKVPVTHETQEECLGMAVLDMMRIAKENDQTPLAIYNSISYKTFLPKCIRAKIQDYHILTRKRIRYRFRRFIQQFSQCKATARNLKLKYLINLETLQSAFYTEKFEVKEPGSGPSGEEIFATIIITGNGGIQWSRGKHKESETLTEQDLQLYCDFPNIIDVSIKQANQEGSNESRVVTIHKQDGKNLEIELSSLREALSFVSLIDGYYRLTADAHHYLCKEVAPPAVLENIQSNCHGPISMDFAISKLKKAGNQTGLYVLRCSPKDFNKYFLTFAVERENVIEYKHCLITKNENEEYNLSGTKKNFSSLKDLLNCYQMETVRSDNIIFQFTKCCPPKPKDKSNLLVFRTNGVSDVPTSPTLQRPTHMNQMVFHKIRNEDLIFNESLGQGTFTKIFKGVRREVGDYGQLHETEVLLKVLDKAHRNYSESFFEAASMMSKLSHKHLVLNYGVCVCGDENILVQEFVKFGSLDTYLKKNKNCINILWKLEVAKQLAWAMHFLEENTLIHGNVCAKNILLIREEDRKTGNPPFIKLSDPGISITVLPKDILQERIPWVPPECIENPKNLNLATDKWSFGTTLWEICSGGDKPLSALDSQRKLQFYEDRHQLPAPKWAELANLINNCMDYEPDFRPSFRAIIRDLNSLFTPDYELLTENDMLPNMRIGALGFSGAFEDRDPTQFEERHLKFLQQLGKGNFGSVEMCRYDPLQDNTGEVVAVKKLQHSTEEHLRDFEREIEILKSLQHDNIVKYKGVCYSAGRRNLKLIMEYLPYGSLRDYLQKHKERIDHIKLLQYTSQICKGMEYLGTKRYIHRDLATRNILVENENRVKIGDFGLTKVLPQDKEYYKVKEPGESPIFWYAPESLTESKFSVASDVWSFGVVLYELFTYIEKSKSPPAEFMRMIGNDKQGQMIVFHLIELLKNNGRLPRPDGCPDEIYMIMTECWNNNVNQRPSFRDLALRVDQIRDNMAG

Sequence of Non-receptor tyrosine-protein kinase TYK2 (P29597 whole entry): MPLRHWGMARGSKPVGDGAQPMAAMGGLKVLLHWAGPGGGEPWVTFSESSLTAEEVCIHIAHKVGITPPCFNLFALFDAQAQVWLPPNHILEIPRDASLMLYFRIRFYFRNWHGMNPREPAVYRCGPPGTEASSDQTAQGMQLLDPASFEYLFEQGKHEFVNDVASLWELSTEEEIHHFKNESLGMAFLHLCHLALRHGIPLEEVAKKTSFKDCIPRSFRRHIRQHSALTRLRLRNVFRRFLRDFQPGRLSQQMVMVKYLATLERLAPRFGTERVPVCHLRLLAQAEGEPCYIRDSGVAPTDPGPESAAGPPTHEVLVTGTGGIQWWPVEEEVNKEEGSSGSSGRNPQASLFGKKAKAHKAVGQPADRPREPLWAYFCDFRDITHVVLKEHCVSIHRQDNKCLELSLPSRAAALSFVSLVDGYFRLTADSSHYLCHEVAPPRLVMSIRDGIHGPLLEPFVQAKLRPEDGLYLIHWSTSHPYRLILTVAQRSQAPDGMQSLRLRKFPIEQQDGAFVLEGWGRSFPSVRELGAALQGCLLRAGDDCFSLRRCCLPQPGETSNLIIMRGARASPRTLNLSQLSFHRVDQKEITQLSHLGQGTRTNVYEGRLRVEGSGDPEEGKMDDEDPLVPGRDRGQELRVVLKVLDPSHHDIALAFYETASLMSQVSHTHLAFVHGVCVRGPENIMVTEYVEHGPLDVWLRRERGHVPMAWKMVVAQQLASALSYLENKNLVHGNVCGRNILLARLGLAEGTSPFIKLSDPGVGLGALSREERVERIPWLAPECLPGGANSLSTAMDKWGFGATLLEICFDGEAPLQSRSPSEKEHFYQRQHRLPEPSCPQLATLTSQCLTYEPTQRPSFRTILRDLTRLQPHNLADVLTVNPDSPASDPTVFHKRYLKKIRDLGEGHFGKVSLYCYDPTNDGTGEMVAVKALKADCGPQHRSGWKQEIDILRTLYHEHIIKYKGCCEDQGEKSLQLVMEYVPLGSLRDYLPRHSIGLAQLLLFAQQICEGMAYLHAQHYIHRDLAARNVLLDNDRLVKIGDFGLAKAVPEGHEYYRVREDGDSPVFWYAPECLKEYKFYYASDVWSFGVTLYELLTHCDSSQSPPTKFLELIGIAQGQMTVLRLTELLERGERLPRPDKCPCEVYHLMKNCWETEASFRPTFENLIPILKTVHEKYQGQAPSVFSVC
Sequence of Tyrosine-protein kinase JAK1 (P23458 whole entry): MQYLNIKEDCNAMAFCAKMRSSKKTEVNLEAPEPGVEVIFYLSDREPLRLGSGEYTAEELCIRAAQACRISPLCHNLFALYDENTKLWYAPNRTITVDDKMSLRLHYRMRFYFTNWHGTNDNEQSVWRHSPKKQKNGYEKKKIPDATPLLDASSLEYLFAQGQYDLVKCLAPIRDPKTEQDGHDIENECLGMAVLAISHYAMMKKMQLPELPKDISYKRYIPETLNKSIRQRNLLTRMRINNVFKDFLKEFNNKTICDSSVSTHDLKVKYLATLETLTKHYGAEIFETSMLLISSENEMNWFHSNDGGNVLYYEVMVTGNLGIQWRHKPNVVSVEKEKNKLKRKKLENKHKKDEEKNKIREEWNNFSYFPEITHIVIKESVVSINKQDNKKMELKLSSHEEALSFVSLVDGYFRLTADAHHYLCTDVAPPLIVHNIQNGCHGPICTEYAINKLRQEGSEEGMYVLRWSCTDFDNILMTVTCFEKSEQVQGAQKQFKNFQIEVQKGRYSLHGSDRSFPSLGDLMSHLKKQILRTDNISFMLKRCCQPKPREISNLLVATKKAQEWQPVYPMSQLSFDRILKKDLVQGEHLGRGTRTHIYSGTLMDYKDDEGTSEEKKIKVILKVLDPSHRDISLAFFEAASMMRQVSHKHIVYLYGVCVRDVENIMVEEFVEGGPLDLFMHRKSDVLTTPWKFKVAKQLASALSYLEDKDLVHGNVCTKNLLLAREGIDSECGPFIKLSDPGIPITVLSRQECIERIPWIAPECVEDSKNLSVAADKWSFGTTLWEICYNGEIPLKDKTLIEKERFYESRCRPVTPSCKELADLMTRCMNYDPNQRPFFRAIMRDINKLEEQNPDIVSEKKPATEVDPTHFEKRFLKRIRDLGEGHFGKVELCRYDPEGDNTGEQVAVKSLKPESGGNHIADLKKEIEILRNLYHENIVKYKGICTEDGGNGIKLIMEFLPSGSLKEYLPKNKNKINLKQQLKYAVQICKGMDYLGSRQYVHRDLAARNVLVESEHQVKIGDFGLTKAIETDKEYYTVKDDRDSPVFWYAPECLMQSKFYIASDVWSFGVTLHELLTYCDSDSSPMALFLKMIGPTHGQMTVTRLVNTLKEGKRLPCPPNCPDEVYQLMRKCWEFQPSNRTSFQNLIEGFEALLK

Cn1cc(-c2cn3nccc3c(-c3cnn([C@]4(CC#N)C[C@@H](CC#N)C4)c3)n2)cn1
pIC50 [1]: < 5.00 | pIC50 [2]: 6.12 | pIC50 [3]: 7.62 | pIC50 [4]: 6.80
